This is an account of results in ChEMBL document CHEMBL3621201, “Improving the Selectivity of Engineered Protease Inhibitors: Optimizing the P2 Prime Residue Using a Versatile Cyclic Peptide Library” (J Med Chem, 2015).

One assay has as its target Plasminogen (Homo sapiens, UniProt P00747). Kind of assay: Inhibition of plasmin (unknown origin) at 50 uM using Ac-RM(O2)YRpNA substrate by spectrophotometry method.
For assay [1], the target named is Coagulation factor IX (Homo sapiens) (UniProt P00740). Kind of assay: Inhibition of factor 9a-beta (unknown origin) at 25 uM using Ac-QGRpNA substrate by spectrophotometry method.
Coagulation factor IX (Homo sapiens), sequence (P00740 47-191 limits assumed): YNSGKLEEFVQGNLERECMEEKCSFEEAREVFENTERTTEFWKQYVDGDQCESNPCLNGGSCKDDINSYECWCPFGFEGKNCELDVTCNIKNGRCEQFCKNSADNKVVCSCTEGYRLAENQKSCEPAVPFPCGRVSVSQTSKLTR
Coagulation factor IX (Homo sapiens), sequence (P00740 227-461 limits assumed): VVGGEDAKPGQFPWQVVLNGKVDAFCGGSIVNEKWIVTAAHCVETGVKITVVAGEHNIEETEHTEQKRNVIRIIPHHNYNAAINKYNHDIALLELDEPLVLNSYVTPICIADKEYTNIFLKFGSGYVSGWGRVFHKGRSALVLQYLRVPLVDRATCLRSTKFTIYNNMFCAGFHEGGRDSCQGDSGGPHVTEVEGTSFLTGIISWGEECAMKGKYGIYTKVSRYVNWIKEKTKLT
The species entered for the next assay is Homo sapiens. Kind of assay: Inhibition of alpha chymotrypsin (unknown origin) at 25 uM using Ac-GRPY-pNA by spectrophotometry method.
Assay [2] addresses Kallikrein-5 (Homo sapiens) (UniProt Q9Y337). Kind of assay: Inhibition of KLK5 (unknown origin) expressed in Pichia pastoris X33 at 50 nM using Ac-YRSR-pNA by spectrophotometry method.
The target in assay [3] is T1, Coagulation factor XII (Homo sapiens) (UniProt P00748).
T1 sequence (whole entry): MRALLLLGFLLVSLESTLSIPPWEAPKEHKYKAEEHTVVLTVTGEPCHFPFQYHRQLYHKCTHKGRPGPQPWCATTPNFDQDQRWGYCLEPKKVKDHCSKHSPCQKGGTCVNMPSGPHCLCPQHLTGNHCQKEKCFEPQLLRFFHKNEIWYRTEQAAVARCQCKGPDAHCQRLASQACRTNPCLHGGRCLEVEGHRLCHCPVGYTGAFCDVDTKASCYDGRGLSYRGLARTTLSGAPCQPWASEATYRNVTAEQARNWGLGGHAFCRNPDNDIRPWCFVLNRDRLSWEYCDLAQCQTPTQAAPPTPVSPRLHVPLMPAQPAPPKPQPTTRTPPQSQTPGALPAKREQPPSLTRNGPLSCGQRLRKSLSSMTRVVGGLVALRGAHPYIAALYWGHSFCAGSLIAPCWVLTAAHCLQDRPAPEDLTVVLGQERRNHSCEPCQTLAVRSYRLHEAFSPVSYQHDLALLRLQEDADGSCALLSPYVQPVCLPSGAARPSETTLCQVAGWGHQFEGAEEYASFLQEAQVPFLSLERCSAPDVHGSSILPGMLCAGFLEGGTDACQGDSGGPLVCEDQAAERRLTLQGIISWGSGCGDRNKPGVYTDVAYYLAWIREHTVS
Kind of assay: Inhibition of factor 12a-alpha (unknown origin) at 10 uM using Ac-QRFRpNA substrate by spectrophotometry method.

A further assay has as its target Kallikrein-4 (Homo sapiens, UniProt Q9Y5K2). Kind of assay: Inhibition of KLK4 (unknown origin) expressed in Sf9 cells at 25 nM using FVQRpNA substrate by spectrophotometry method.
In the next assay the target is Kallikrein-7 (Homo sapiens, UniProt P49862). Kind of assay: Inhibition of KLK7 (unknown origin) expressed in Pichia pastoris X33 at 200 nM using KHLY-pNA substrate by spectrophotometry method.
Kallikrein-7, sequence (P49862 30-253 limits assumed): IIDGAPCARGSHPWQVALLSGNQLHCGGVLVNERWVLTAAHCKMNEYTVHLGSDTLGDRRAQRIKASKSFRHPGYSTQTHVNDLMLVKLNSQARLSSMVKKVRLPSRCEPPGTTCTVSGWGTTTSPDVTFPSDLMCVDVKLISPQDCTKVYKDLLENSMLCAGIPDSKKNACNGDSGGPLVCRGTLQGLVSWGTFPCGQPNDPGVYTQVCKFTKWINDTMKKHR
In assay [4] the target is Serine protease 1 (Homo sapiens) (UniProt P07477). Kind of assay: Inhibition of beta-trypsin (unknown origin) at 25 nM using Bz-FVRpNA substrate by spectrophotometry method.
Serine protease 1 (Homo sapiens), sequence (P07477 whole entry): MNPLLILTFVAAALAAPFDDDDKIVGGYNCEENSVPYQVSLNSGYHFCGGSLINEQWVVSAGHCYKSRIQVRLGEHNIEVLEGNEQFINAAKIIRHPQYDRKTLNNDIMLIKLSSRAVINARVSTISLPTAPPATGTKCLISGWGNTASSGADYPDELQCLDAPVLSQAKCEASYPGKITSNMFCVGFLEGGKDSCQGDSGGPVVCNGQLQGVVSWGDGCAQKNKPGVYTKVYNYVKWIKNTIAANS
The target of assay [5] is T2, Suppressor of tumorigenicity 14 protein (Homo sapiens) (UniProt Q9Y5Y6).
T2 sequence (whole entry): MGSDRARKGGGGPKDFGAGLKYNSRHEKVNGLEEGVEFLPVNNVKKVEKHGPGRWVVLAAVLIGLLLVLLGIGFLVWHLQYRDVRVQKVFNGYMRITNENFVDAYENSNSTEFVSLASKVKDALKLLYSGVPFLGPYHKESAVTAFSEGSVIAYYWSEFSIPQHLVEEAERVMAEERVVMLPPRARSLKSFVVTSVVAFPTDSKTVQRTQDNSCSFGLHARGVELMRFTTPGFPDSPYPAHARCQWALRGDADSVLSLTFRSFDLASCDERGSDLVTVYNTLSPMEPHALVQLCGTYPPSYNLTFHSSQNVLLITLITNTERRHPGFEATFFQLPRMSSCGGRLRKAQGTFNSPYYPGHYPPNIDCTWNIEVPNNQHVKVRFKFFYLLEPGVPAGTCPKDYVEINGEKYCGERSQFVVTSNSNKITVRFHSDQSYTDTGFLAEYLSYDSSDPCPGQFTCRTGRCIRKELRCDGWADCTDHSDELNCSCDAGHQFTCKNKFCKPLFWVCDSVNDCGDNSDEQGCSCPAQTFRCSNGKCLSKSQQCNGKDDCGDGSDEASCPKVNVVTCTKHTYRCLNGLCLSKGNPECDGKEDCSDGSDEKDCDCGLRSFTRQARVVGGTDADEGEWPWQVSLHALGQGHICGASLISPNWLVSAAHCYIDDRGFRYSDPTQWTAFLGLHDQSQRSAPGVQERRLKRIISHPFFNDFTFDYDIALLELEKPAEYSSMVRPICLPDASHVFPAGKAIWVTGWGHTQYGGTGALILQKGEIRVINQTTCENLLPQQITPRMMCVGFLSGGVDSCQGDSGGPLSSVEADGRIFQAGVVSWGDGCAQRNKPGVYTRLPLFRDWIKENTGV
Kind of assay: Inhibition of matriptase (unknown origin) at 10 uM using Ac-RQFRpNA substrate by spectrophotometry method.

In assay [6] the target is Coagulation factor XI (Homo sapiens) (UniProt P03951). Kind of assay: Inhibition of factor 11a (unknown origin) at 10 uM using Bz-FVRpNA substrate by spectrophotometry method.
Coagulation factor XI (Homo sapiens), sequence (P03951 19-387 limits assumed): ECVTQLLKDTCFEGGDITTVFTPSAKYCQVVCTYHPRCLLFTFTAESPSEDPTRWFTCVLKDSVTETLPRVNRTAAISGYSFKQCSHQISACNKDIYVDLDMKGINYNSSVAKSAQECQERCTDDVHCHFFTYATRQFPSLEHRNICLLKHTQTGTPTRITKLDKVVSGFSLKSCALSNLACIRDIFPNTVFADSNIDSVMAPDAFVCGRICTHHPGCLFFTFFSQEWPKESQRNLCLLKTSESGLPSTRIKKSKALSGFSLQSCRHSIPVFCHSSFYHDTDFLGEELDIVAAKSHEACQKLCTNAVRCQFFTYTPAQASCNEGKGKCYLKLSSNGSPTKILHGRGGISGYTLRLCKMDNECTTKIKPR
Coagulation factor XI (Homo sapiens), sequence (P03951 388-625 limits assumed): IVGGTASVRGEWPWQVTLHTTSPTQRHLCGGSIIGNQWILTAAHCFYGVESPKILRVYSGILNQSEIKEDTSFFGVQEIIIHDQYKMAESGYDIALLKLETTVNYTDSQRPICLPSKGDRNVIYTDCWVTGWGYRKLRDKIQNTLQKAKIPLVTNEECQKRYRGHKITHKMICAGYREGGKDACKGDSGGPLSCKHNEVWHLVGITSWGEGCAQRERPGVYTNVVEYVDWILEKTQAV

The source made the active and inactive calls. No cut-off for these calls is given here. Bridge positions count the residues as written; N and C are the ends. Square brackets hold non-standard residues; d marks the D form. Peptide text beside a SMILES is read from it. Bip = N[C@@H](Cc1ccc(-c2ccccc2)cc1)C(=O)O

Plasminogen, sequence (P00747 97-580 limits assumed): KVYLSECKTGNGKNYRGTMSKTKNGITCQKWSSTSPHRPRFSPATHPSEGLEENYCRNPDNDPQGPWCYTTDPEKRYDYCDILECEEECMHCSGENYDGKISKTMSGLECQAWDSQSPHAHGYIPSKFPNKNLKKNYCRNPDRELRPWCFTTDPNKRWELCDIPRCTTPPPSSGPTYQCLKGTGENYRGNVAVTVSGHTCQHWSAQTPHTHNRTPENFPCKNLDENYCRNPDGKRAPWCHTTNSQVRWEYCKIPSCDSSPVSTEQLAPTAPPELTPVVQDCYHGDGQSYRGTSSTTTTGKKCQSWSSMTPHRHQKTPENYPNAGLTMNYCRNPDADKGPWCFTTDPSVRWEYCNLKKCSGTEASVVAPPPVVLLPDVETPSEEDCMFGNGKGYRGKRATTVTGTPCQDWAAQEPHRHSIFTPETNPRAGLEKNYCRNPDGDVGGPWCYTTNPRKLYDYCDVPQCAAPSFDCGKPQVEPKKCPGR
Plasminogen, sequence (P00747 581-810 limits assumed): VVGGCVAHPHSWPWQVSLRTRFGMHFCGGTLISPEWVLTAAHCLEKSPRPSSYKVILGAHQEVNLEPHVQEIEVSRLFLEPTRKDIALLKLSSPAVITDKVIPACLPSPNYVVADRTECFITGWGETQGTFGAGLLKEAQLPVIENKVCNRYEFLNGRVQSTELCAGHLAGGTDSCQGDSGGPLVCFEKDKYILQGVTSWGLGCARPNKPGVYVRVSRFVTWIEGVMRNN
Kallikrein-4, sequence (Q9Y5K2 whole entry): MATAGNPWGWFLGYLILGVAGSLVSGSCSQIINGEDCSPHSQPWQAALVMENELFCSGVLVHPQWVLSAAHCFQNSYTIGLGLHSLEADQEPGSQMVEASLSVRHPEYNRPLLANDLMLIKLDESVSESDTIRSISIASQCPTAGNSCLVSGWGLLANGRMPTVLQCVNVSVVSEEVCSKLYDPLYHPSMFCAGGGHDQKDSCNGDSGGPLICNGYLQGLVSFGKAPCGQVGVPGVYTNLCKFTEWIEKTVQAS
Kallikrein-5 (Homo sapiens), sequence (Q9Y337 whole entry): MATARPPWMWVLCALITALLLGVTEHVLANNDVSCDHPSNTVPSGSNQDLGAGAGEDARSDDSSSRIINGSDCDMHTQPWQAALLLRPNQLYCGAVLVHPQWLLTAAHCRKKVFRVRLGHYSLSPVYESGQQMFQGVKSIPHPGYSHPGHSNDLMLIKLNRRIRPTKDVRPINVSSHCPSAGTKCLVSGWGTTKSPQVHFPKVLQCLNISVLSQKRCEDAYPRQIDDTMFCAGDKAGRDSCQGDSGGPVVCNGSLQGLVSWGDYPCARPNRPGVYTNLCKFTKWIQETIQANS

Regarding `CC[C@H](C)[C@@H]1NC(=O)[C@@H]2CCCN2C(=O)[C@@H]2CCCN2C(=O)[C@H](CCCCN)NC(=O)[C@H](CO)NC(=O)[C@H](CCCNC(=N)N)NC(=O)[C@H]([C@@H](C)O)NC(=O)[C@@H]2CSSC[C@H](NC1=O)C(=O)N[C@@H](CC(N)=O)C(=O)N1CCC[C@H]1C(=O)N[C@@H](CC(N)=O)C(=O)NCC(=O)N[C@@H]([C@@H](C)O)C(=O)N2` (cyclo(CNPNGTCTRSKPPI); disulfide 1-7), the inhibition at Plasminogen came out at 60%; in [1], 43%.
Turning to `CC[C@H](C)[C@@H]1NC(=O)[C@@H]2CCCN2C(=O)[C@@H]2CCCN2C(=O)[C@H](Cc2c[nH]c3ccccc23)NC(=O)[C@H](CO)NC(=O)[C@H](CCCNC(=N)N)NC(=O)[C@H]([C@@H](C)O)NC(=O)[C@@H]2CSSC[C@H](NC1=O)C(=O)N[C@@H](CC(N)=O)C(=O)N1CCC[C@H]1C(=O)N[C@@H](CC(N)=O)C(=O)NCC(=O)N[C@@H]([C@@H](C)O)C(=O)N2` (cyclo(CNPNGTCTRSWPPI); disulfide 1-7), the values for the inhibition (in the assay filed under Homo sapiens; in [3]) were 63% and 87%, respectively. Also, in [2], the inhibition result is “Active”.
With `CC[C@H](C)[C@@H]1NC(=O)[C@@H]2CCCN2C(=O)[C@@H]2CCCN2C(=O)[C@H](Cc2ccc(-c3ccccc3)cc2)NC(=O)[C@H](CO)NC(=O)[C@H](CCCNC(=N)N)NC(=O)[C@H]([C@@H](C)O)NC(=O)[C@@H]2CSSC[C@H](NC1=O)C(=O)N[C@@H](CC(N)=O)C(=O)N1CCC[C@H]1C(=O)N[C@@H](CC(N)=O)C(=O)NCC(=O)N[C@@H]([C@@H](C)O)C(=O)N2` (cyclo([Bip]PPICNPNGTCTRS); disulfide 5-11), the inhibition result (on Kallikrein-4; in assay [2]) was “Active” each time. Besides, in assay [3], the inhibition stood at 80%.
For the compound `CC[C@H](C)[C@@H]1NC(=O)[C@@H]2CCCN2C(=O)[C@@H]2CCCN2C(=O)[C@H](CCC(N)=O)NC(=O)[C@H](CO)NC(=O)[C@H](CCCNC(=N)N)NC(=O)[C@H]([C@@H](C)O)NC(=O)[C@@H]2CSSC[C@H](NC1=O)C(=O)N[C@@H](CC(N)=O)C(=O)N1CCC[C@H]1C(=O)N[C@@H](CC(N)=O)C(=O)NCC(=O)N[C@@H]([C@@H](C)O)C(=O)N2` (cyclo(CNPNGTCTRSQPPI); disulfide 1-7), in assay [2], the inhibition entry was “inactive”. Besides, the inhibition result on Kallikrein-7 is “Active”.
With `CC[C@H](C)[C@@H]1NC(=O)[C@@H]2CCCN2C(=O)[C@@H]2CCCN2C(=O)CNC(=O)[C@H](CO)NC(=O)[C@H](CCCNC(=N)N)NC(=O)[C@H]([C@@H](C)O)NC(=O)[C@@H]2CSSC[C@H](NC1=O)C(=O)N[C@@H](CC(N)=O)C(=O)N1CCC[C@H]1C(=O)N[C@@H](CC(N)=O)C(=O)NCC(=O)N[C@@H]([C@@H](C)O)C(=O)N2` (cyclo(CNPNGTCTRSGPPI); disulfide 1-7), the inhibition result in assay [4] was “inactive”.
As for `CC[C@H](C)[C@@H]1NC(=O)[C@@H]2CCCN2C(=O)[C@@H]2CCCN2C(=O)[C@H](C(C)C)NC(=O)[C@H](CO)NC(=O)[C@H](CCCNC(=N)N)NC(=O)[C@H]([C@@H](C)O)NC(=O)[C@@H]2CSSC[C@H](NC1=O)C(=O)N[C@@H](CC(N)=O)C(=O)N1CCC[C@H]1C(=O)N[C@@H](CC(N)=O)C(=O)NCC(=O)N[C@@H]([C@@H](C)O)C(=O)N2` (cyclo(CNPNGTCTRSVPPI); disulfide 1-7), the inhibition in assay [4] was 75%; in the assay listed under Homo sapiens, 76%; in assay [5] it was 54%; against Kallikrein-4, 92%; against Plasminogen, 25%; in assay [6], 65%. In addition, the inhibition in assay [3] is 80%.
For `CC[C@H](C)[C@@H]1NC(=O)[C@@H]2CCCN2C(=O)[C@@H]2CCCN2C(=O)[C@H](Cc2cnc[nH]2)NC(=O)[C@H](CO)NC(=O)[C@H](CCCNC(=N)N)NC(=O)[C@H]([C@@H](C)O)NC(=O)[C@@H]2CSSC[C@H](NC1=O)C(=O)N[C@@H](CC(N)=O)C(=O)N1CCC[C@H]1C(=O)N[C@@H](CC(N)=O)C(=O)NCC(=O)N[C@@H]([C@@H](C)O)C(=O)N2` (cyclo(CNPNGTCTRSHPPI); disulfide 1-7), the inhibition result in assay [2] was “inactive”. The inhibition result on Kallikrein-7 was “Active”.
`CC[C@H](C)[C@@H]1NC(=O)[C@@H]2CCCN2C(=O)[C@@H]2CCCN2C(=O)[C@@H]2CCCN2C(=O)[C@H](CO)NC(=O)[C@H](CCCNC(=N)N)NC(=O)[C@H]([C@@H](C)O)NC(=O)[C@@H]2CSSC[C@H](NC1=O)C(=O)N[C@@H](CC(N)=O)C(=O)N1CCC[C@H]1C(=O)N[C@@H](CC(N)=O)C(=O)NCC(=O)N[C@@H]([C@@H](C)O)C(=O)N2` (cyclo(CNPNGTCTRSPPPI); disulfide 1-7): the inhibition result in assay [4] is “inactive”.
`CC[C@H](C)[C@@H]1NC(=O)[C@@H]2CCCN2C(=O)[C@@H]2CCCN2C(=O)[C@H](CCC(=O)O)NC(=O)[C@H](CO)NC(=O)[C@H](CCCNC(=N)N)NC(=O)[C@H]([C@@H](C)O)NC(=O)[C@@H]2CSSC[C@H](NC1=O)C(=O)N[C@@H](CC(N)=O)C(=O)N1CCC[C@H]1C(=O)N[C@@H](CC(N)=O)C(=O)NCC(=O)N[C@@H]([C@@H](C)O)C(=O)N2` (cyclo(CNPNGTCTRSEPPI); disulfide 1-7): the inhibition entry (in assay [4]; on Kallikrein-4) was “inactive” each time. Besides, the inhibition in assay [1] was found to be 54%.
Take `CC[C@H](C)[C@@H]1NC(=O)[C@@H]2CCCN2C(=O)[C@@H]2CCCN2C(=O)[C@H](CC(C)C)NC(=O)[C@H](CO)NC(=O)[C@H](CCCNC(=N)N)NC(=O)[C@H]([C@@H](C)O)NC(=O)[C@@H]2CSSC[C@H](NC1=O)C(=O)N[C@@H](CC(N)=O)C(=O)N1CCC[C@H]1C(=O)N[C@@H](CC(N)=O)C(=O)NCC(=O)N[C@@H]([C@@H](C)O)C(=O)N2` (cyclo(CNPNGTCTRSLPPI); disulfide 1-7): in [4], the inhibition is 52%.
For the compound `CC[C@H](C)[C@@H]1NC(=O)[C@@H]2CCCN2C(=O)[C@@H]2CCCN2C(=O)[C@H](CCCNC(=N)N)NC(=O)[C@H](CO)NC(=O)[C@H](CCCNC(=N)N)NC(=O)[C@H]([C@@H](C)O)NC(=O)[C@@H]2CSSC[C@H](NC1=O)C(=O)N[C@@H](CC(N)=O)C(=O)N1CCC[C@H]1C(=O)N[C@@H](CC(N)=O)C(=O)NCC(=O)N[C@@H]([C@@H](C)O)C(=O)N2` (cyclo(CNPNGTCTRSRPPI); disulfide 1-7), the inhibition in assay [4] worked out at 65%; in the assay listed under Homo sapiens it was 57%; on Plasminogen it was 23%; in [1], 43%. For the same compound, on Kallikrein-4, the inhibition entry is “Active”.
Consider `CC[C@H](C)[C@@H]1NC(=O)[C@@H]2CCCN2C(=O)[C@@H]2CCCN2C(=O)[C@H](CO)NC(=O)[C@H](CO)NC(=O)[C@H](CCCNC(=N)N)NC(=O)[C@H]([C@@H](C)O)NC(=O)[C@@H]2CSSC[C@H](NC1=O)C(=O)N[C@@H](CC(N)=O)C(=O)N1CCC[C@H]1C(=O)N[C@@H](CC(N)=O)C(=O)NCC(=O)N[C@@H]([C@@H](C)O)C(=O)N2` (cyclo(CNPNGTCTRSSPPI); disulfide 1-7), for which the inhibition entry in assay [2] was “inactive”. The inhibition entry at Kallikrein-7 is “Active”.
